Earlier results, collected in paper PMC8448535 (Bioorganic & Medicinal Chemistry, 2021).
Structures can show the parent of a compound that is named as a salt.

Experiments:
[1] = test system: recombinant-human ACE2 (rhACE2); details: pIC50 of IC50 in mol/L
[2] = test system: recombinant-human ACE (rhACE); details: pIC50 of IC50 in mol/L
ACE2 = details: read-out: activity (inhibitory effect against ACE2)
furin = details: database screening of pre-existing drugs
cell viability = details: in words
influenza virus H3N2 = details: H3N2, 10 μM, at 24 h, compared to control

For `CC(C)C[C@@H](N[C@@H](Cc1cncn1Cc1cc(Cl)cc(Cl)c1)C(=O)O)C(=O)O` [MLN-4760-R], the pIC50 [1] is listed as 8.9 ± 0.1 mol/L and the pIC50 [2] is listed as 4.4 ± 0.3 mol/L.

For `CC(C)CC(N[C@@H](Cc1cncn1Cc1cc(Cl)cc(Cl)c1)C(=O)O)C(=O)O` (stereo partly drawn) [MLN-4760-S/R], the pIC50 [1] is listed as 8.5 ± 0.1 mol/L and the pIC50 [2] is listed as 4.4 ± 0.2 mol/L.

In the case of `NCCNCCN1CC1` [N-(2-aminoethyl)-1-aziridineethanamine], the IC50 (ACE2) is given as 57 ± 7 µM.

For `Nc1nc(N)c2nc(CNc3ccc(C(=O)N[C@@H](CCC(=O)O)C(=O)O)cc3)cnc2n1` [aminopterin], the affinity for furin (furin) is given as “good affinity”.

For `CN(Cc1cc(Br)cc(Br)c1N)C1CCCCC1` [bromhexine], the “activity towards TMPRSS2” value (TMPRSS2) is listed as “good activity”.

For `CN(C)C(=O)COC(=O)Cc1ccc(OC(=O)c2ccc(NC(=N)N)cc2)cc1` [camostat mesylate], the “block of SARS-CoV from entering cells” value (SARS-CoV) is listed as 65%.

For `N=C(N)c1cccc(C[C@H](NS(=O)(=O)c2cccc(-c3ccc(Cl)cc3Cl)c2)C(=O)N2CCC(CCN)CC2)c1` [compound 92], the “effect on cell viability” value (cell viability) is given as “little to no effect” and the “decrease in virus titres” value (influenza virus H3N2) is given as 100 fold.

In the case of `N=C(N)c1cccc(C[C@H](NS(=O)(=O)c2cccc(-c3ccc(Cl)cc3Cl)c2)C(=O)N2CCC(NC(=O)NC3CCCCC3)CC2)c1` [compound 114], the “effect on cell viability” value (cell viability) is given as “little to no effect”.

For `N=C(N)c1ccc(/N=N/Nc2ccc(C(=N)N)cc2)cc1` [diminazene], the affinity for furin (furin) is given as “good affinity”.

For `CN(Cc1cnc2nc(N)nc(N)c2n1)c1ccc(C(=O)N[C@@H](CCC(=O)O)C(=O)O)cc1` [methotrexate], the affinity for furin (furin) is given as “good affinity”.

In the case of `COc1cc(C2Oc3cc([C@H]4Oc5cc(O)cc(O)c5C(=O)[C@@H]4O)ccc3OC2CO)ccc1O` (stereo partly drawn) [silybin], the affinity for furin (furin) is listed as “good affinity”.

For “angiotensin-III (RVYIHPF; Angiotensin 3; UniProt P01019 26-32, looked up) [Ang-III]”, the “vasopressor efficacy relative to Ang-II” value is listed as 40%.
